These results are taken from US12344610B2, “APOL1 inhibitors and methods of use” (Maze Therapeutics, Inc., priority 2022, dated 2025).

One may read the AC50 as the concentration giving half of the maximal activity seen.

The target in the experiment is T1, APOL1 G2 (Homo sapiens, UniProt O14791, DEL388-389).
T1 construct: expressed in transfected cells; host or cells: HEK293 T-REx clonal line stably expressing GCaMP6f (HEK T-REx/GCaMP6f/APOL1 G2 K6.3), doxycycline induced
T1 sequence (O14791 with tags, fused parts or gaps DEL388-389): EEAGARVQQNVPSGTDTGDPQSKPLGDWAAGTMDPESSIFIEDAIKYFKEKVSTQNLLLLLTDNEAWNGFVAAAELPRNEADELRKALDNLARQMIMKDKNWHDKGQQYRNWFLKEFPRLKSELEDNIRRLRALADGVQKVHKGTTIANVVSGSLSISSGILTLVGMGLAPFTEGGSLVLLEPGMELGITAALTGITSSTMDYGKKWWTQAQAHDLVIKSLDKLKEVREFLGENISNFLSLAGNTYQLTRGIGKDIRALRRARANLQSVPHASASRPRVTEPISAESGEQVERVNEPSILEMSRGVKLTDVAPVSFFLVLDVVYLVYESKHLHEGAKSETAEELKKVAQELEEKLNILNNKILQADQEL
The experiment in a line: APOL1-mediated calcium transport (calcium influx) assay, HEK T-REx/GCaMP6f/APOL1 G2 K6.3 cells, FLIPR TETRA. It counts as cell-based. The following applies: prevention of calcium influx; geometric mean of at least 2 assay runs; † = average of a technical replicate from a single assay run. An outline of the steps: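 A HEK293 T-REx clone stably expressing GCaMP6f had APOL1 G2 induced with doxycycline (20 ng/mL solution added) for 6 h. Cells were then washed into Ca2+-free Tyrode's buffer (pH 7.4) and preincubated with compounds (duplicate 8-point) for 10 min at room temperature. Ca2+ injection to 5 mM final produced FLIPR GCaMP fluorescence, giving AC50 for influx inhibition (geometric mean, ≥2 runs).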
Take `CS(=O)(=O)c1ccc(OCCN2CCC3(CC2)C(=O)N(CCO)c2ccc(Cl)cc23)cc1` [Compound 18, 5-chloro-1-(2-hydroxyethyl)-1′-[2-(4-methanesulfonylphenoxy)ethyl]-1,2-dihydrospiro[indole-3,4′-piperidin]-2-one]: the AC50 was found to be 240 nM.

Regarding `COCCN1C(=O)C2(CCN(CCOc3ccc(S(C)(=O)=O)cc3)CC2)c2cc(Cl)ccc21` [Compound 20, 5-chloro-1′-[2-(4-methanesulfonylphenoxy)ethyl]-1-(2-methoxyethyl)-1,2-dihydrospiro[indole-3,4′-piperidin]-2-one], the concentration at half-maximal activity (AC50) came out at 348 nM.

Take `CN1C(=O)C2(CCN(CCOc3ccc(S(=O)(=O)CCCS(C)(=O)=O)cc3)CC2)c2cc(Cl)ccc21` [Compound 23, 5-chloro-1′-{2-[4-(3-methanesulfonylpropanesulfonyl)phenoxy]ethyl}-1-methyl-1,2-dihydrospiro[indole-3,4′-piperidin]-2-one]: the AC50 was found to be 514 nM.

Turning to `CS(=O)(=O)c1ccc(OCCN2CCC3(CC2)C(=O)N(CCO)c2ccc(Br)cc23)cc1` [Compound 24, 5-bromo-1-(2-hydroxyethyl)-1′-[2-(4-methanesulfonylphenoxy)ethyl]-1,2-dihydrospiro[indole-3,4′-piperidin]-2-one], the half-maximal activity concentration (AC50) came to 200 nM.

As for `COCCN1C(=O)C2(CCN(CCOc3ccc(S(C)(=O)=O)cc3)CC2)c2cc(C#N)ccc21` [Compound 25, 1′-[2-(4-methanesulfonylphenoxy)ethyl]-1-(2-methoxyethyl)-2-oxo-1,2-dihydrospiro[indole-3,4′-piperidine]-5-carbonitrile], the half-maximal activity concentration (AC50) came to 651 nM.

On to `CS(=O)(=O)c1ccc(OCCN2CCCC3(CC2)C(=O)Nc2ccccc23)cc1` (stereo not shown) [Compound 26, 1-(2-(4-(methylsulfonyl)phenoxy)ethyl)spiro[azepane-4,3′-indolin]-2′-one], for which the AC50 came out at 943 nM.

As to `CN1C(=O)CCc2cc(OCCN3CCC4(CC3)C(=O)Nc3ccc(Cl)cc34)ccc21` [Compound 27, 5-chloro-1′-[2-[(1-methyl-2-oxo-3,4-dihydroquinolin-6-yl)oxy]ethyl]spiro[indoline-3,4′-piperidine]-2-one], the AC50 came to 510 nM.

`O=C1CCc2cc(OCCN3CCC4(CC3)C(=O)Nc3ccc(Cl)cc34)cnc2N1CCO` [Compound 192, 5-chloro-1′-(2-{[8-(2-hydroxyethyl)-7-oxo-5,6,7,8-tetrahydro-1,8-naphthyridin-3-yl]oxy}ethyl)-1,2-dihydrospiro[indole-3,4′-piperidin]-2-one]: the half-maximal activity concentration (AC50) was 291 nM.

In the case of `CC(=O)N(C)CCS(=O)(=O)c1ccc(OCCN2CCC3(CC2)C(=O)Nc2ccc(Cl)cc23)cc1` [Compound 193, N-{2-[4-(2-{5-chloro-2-oxo-1,2-dihydrosiro[indole-3,4′-piperidin]-1′-yl}ethoxy)benzenesulfonyl]ethyl}-N-methylacetamide], the half-maximal activity concentration (AC50) is 1270 nM.

With `CS(=O)(=O)C1(c2ccc(OCCN3CCC4(CC3)C(=O)Nc3ccc(Cl)cc34)cc2)COC1` [Compound 195, 5-chloro-1′-{2-[4-(3-methanesulfonyloxetan-3-yl)phenoxy]ethyl}-1,2-dihydrospiro[indole-3,4′-piperidin]-2-one], the concentration at half-maximal activity (AC50) was 604 nM.

`O=C1Nc2ccc(Cl)cc2C12CCN(CCOc1ccc3c(c1)CCS3(=O)=O)CC2` [Compound 196, 5-(2-{5-chloro-2-oxo-1,2-dihydrospiro[indole-3,4′-piperidin]-1′-yl}ethoxy)-2,3-dihydro-1λ^6-benzothiophene-1,1-dione]: the concentration at half-maximal activity (AC50) is 696 nM.

In the case of `CS(=O)(=O)c1ccc(OCCN2CCC3(CC2)C(=O)Nc2ccc(Cl)cc23)cc1C(F)F` [Compound 197, 5-chloro-1′-{2-[3-(difluoromethyl)-4-methanesulfonylphenoxy]ethyl}-1,2-dihydrospiro[indole-3,4′-piperidin]-2-one], the half-maximal activity concentration (AC50) came to 889 nM.

On to `O=C1Nc2ccc(Cl)cc2C12CCN(CCOc1ccc(S(=O)(=O)CCO)cc1)CC2` [Compound 198, 5-chloro-1′-{2-[4-(2-hydroxyethanesulfonyl)phenoxy)ethyl}-1,2-dihydrospiro[indole-3,4′-piperidin]-2-one], for which the concentration at half-maximal activity (AC50) was found to be 631 nM.

On to `CS(=O)(=O)Nc1ccc(OCCN2CCC3(CC2)C(=O)Nc2ccc(Cl)cc23)cc1` [Compound 214, N-[4-(2-{5-chloro-2-oxo-1,2-dihydrospiro[indole-3,4′-piperidin]-1′-yl}ethoxy)phenyl]methanesulfonamide], for which the AC50 is 355 nM.

Turning to `O=C1Nc2ccc(Cl)cc2C12CCN(CCOc1ccc(S(=O)(=O)[C@H]3C[C@H](O)C3)cc1)CC2` [Compound 215, 5-chloro-1′-[2-(4-{[(trans)-3-hydroxycyclobutyl]sulfonyl}phenoxy)ethyl]-1,2-dihydrospiro[indole-3,4′-piperidin]-2-one], the AC50 worked out at 1130 nM.

Regarding `CS(=O)(=O)c1ccc(OCCN2CCC3(CC2)C(=O)Nc2ccc(Cl)cc23)cc1C(O)CO` (stereo not shown) [Compound 216, 5-chloro-1′-{2-[3-(1,2-dihydroxyethyl)-4-methanesulfonylphenoxy]ethyl}-1,2-dihydrospiro[indole-3,4′-piperidin]-2-one], the half-maximal activity concentration (AC50) was found to be 3140 nM.

Take `O=C1CCc2cc(OCCN3CCC4(CC3)C(=O)Nc3ccc(Cl)cc34)ccc2N1[C@H]1C[C@H](O)C1` [Compound 224, 5-chloro-1′-[2-({2-oxo-1-[(trans)-3-hydroxycyclobutyl]-1,2,3,4-tetrahydroquinolin-6-yl}oxy)ethyl]-1,2-dihydrospiro[indole-3,4′-piperidin]-2-one]: the AC50 is 830 nM.

Regarding `O=C1Nc2ccc(Cl)cc2C12CCN(CCOc1ccc(S(=O)(=O)C3(CO)CC3)cc1)CC2` [Compound 225, 5-chloro-1′-[2-(4-{[1-(hydroxymethyl)cyclopropyl]sulfonyl}phenoxy)ethyl]-1,2-dihydrospiro[indole-3,4′-piperidin]-2-one], the AC50 amounted to 847 nM.

With `CNC(=O)C1(S(=O)(=O)c2ccc(OCCN3CCC4(CC3)C(=O)Nc3ccc(Cl)cc34)cc2)CC1` [Compound 226, 1-[4-(2-{5-chloro-2-oxo-1,2-dihydrospiro[indole-3,4′-piperidin]-1′-yl}ethoxy)benzenesulfonyl]-N-methylcyclopropane-1-carboxamide], the concentration at half-maximal activity (AC50) was determined as 1080 nM.

Consider `CN(C)C(=O)C1(S(=O)(=O)c2ccc(OCCN3CCC4(CC3)C(=O)Nc3ccc(Cl)cc34)cc2)CC1` [Compound 227, 1-[4-(2-{5-chloro-2-oxo-1,2-dihydrospiro[indole-3,4′-piperidin]-1′-yl}ethoxy)benzenesulfonyl]-N,N-dimethylcyclopropane-1-carboxamide], for which the AC50 turned out to be 1110 nM.

In the case of `O=C1Nc2ccc(Cl)cc2C12CCN(CCOc1ccc(S(=O)(=O)C3(C(=O)N4CCC4)CC3)cc1)CC2` [Compound 228, 1′-[2-(4-{[1-(azetidine-1-carbonyl)cyclopropyl]sulfonyl}phenoxy)ethyl]-5-chloro-1,2-dihydrospiro[indole-3,4′-piperidin]-2-one], the AC50 was determined as 1200 nM.

`CNC(=O)c1ccc(OCCN2CCC3(CC2)C(=O)Nc2ccc(Cl)cc23)cc1F` [Compound 229, 4-(2-{5-chloro-2-oxo-1,2-dihydrospiro[indole-3,4′-piperidin]-1′-yl}ethoxy)-2-fluoro-N-methylbenzamide]: the concentration at half-maximal activity (AC50) came to 792 nM.

`CN(C)C(=O)c1ccc(OCCN2CCC3(CC2)C(=O)Nc2ccc(Cl)cc23)cc1F` [Compound 230, 4-(2-{5-chloro-2-oxo-1,2-dihydrospiro[indole-3,4′-piperidin]-1′-yl}ethoxy)-2-fluoro-N,N-dimethylbenzamide]: the half-maximal activity concentration (AC50) was determined as 891 nM.

As to `O=C(c1ccc(OCCN2CCC3(CC2)C(=O)Nc2ccc(Cl)cc23)cc1F)N1CCOCC1` [Compound 231, 5-chloro-1′-{2-[3-fluoro-4-(morpholine-4-carbonyl)phenoxy]ethyl}-1,2-dihydrospiro[indole-3,4′-piperidin]-2-one], the concentration at half-maximal activity (AC50) was 1020 nM.

Turning to `O=C(c1ccc(OCCN2CCC3(CC2)C(=O)Nc2ccc(Cl)cc23)cc1F)N1CCS(=O)(=O)CC1` [Compound 232, 4-[4-(2-{5-chloro-2-oxo-1,2-dihydrospiro[indole-3,4′-piperidin]-1′-yl}ethoxy)-2-fluorobenzoyl]-1λ^6-thiomorpholine-1,1-dione], the AC50 came out at 1010 nM.

On to `CS(=O)(=O)C1CN(C(=O)c2ccc(OCCN3CCC4(CC3)C(=O)Nc3ccc(Cl)cc34)cc2F)C1` [Compound 233, 5-chloro-1′-{2-[3-fluoro-4-(3-methanesulfonyl-azetidine-1-carbonyl)phenoxy]ethyl}-1,2-dihydrospiro[indole-3,4′-piperidin]-2-one], for which the AC50 was 1160 nM.

Consider `O=C(c1ccc(OCCN2CCC3(CC2)C(=O)Nc2ccc(Cl)cc23)cc1F)N1CCC1` [Compound 234, 1′-{2-[4-(azetidine-1-carbonyl)-3-fluorophenoxy]ethyl}-5-chloro-1,2-dihydrospiro[indole-3,4′-piperidin]-2-one], for which the AC50 is 786 nM.

With `O=C(c1ccc(OCCN2CCC3(CC2)C(=O)Nc2ccc(Cl)cc23)cc1F)N1CC(O)C1` [Compound 235, 5-chloro-1′-{2-[3-fluoro-4-(3-hydroxyazetidine-1-carbonyl)phenoxy]ethyl}-1,2-dihydrospiro[indole-3,4′-piperidin]-2-one], the concentration at half-maximal activity (AC50) is 1000 nM.
